# Assays:
# cancer stem cells [1] = assay: Viability of cancer stem cells under nutrient deprivation after PMCA or SERCA inhibition; assay type: cell-based
# Method: In order to compare the viabilities of cancer cells and cancer stem cells under glucose deprivation, each of p-MDA-MB-231, p-MCF-7, s-MDA-MB-231 and s-MCF-7 cell lines, prepared in the same manner as described in Example 1, was added to a 96-well plate at a concentration of 5×10^3 cells/100 μL and cultured to a confluence of about 70%, and then the medium was replaced with a glucose-deprived in RPMI-1640 medium containing 10% FBS, and the cells were further cultured for 3 days. At each of 0, 12, 24, 36, 48, 60 and 72 hours, the viability of each of the cell lines was determined by crystal violet staining and an MTT (3-(4,5-dimethylthiazol-2-yl)-2,5-diphenyltetrazolium bromide) assay. In order to examine whether the calcium concentration regulatory ability of the cancer stem cells is changed when PMCA is inhibited under nutrient deprivation, the activity of PMCA and SERCA was inhibited by using caloxin (which is a calcium pump inhibitor) as an inhibitor of PMCA acting as Ca^2+-ATPase (calcium ATPase) in the plasma membrane and using thapsigargin which is an inhibitor of SERCA (sarco/endoplasmic reticulum Ca^2+-ATPase) acting as Ca^2+-ATPase (calcium ATPase), and then changes in the extracellular Ca^2+ concentrations of the cancer stem cells were measured.
# cancer stem cells [2] = assay: Extracellular Ca2+ concentration of cancer stem cells after PMCA or SERCA inhibition; assay type: cell-based; conditions: nutrient deprivation
# Description: In order to examine whether the calcium concentration regulatory ability of the cancer stem cells is changed when PMCA is inhibited under nutrient deprivation, the activity of PMCA and SERCA was inhibited by using caloxin (which is a calcium pump inhibitor) as an inhibitor of PMCA acting as Ca^2+-ATPase (calcium ATPase) in the plasma membrane and using thapsigargin which is an inhibitor of SERCA (sarco/endoplasmic reticulum Ca^2+-ATPase) acting as Ca^2+-ATPase (calcium ATPase), and then changes in the extracellular Ca^2+ concentrations of the cancer stem cells were measured.
# p-MDA-MB-231 = assay: Tumor volume in breast cancer animal model injected with ordinary cancer cells (P231); assay type: in vivo, BALB/c nude mice
# Method: (§1) In order to identify a therapeutic method effective against cancer stem cells, breast cancer animal models were constructed. For construction of the breast cancer animal models, each of breast cancer cells (p-MDA-MB-231 and p-MCF-7) and breast cancer stem cell lines (s-MDA-MB-231 and s-MCF-7) was cultured in vitro, and the cultured cells were injected into the upper left flank of 5-6-week-old BALB/c nude mice at a density of 1.0×10^7 cells/mouse. Then, the mice were housed at 22° C. under a 12-hr light/12-hr dark cycle for 7 days while they were fed with water and feed, thereby constructing breast cancer animal models.
# s-MDA-MB-231 = assay: Tumor volume in breast cancer animal model injected with cancer stem cells (S231); assay type: in vivo, BALB/c nude mice; conditions: for tumor volume: in mm³ (unit assumed)
# Method: as §1
# cancer stem cells [3] = assay: TUNEL assay (apoptosis, DNA fragmentation) in cancer stem cells under nutrient deprivation; assay type: cell-based; conditions: 10 μM
# Method: In order to examine whether the reason why cancer stem cells show high viability under nutrient deprivation is because of their resistance to apoptosis, each of p-MDA-MB-231, p-MCF-7, s-MDA-MB-231 and s-MCF-7 cell lines, cultured under glucose deprivation for 40 hours in the same manner as described in Example 2, was collected and subjected to a TUNEL assay. In the TUNEL assay, the collected cells were fixed with 4% paraformaldehyde solution for 48 hours, and then stained using a Terminal Deoxynucleotidyl Transferase dUTP Nick end Labeling (TUNEL) kit according to the manufacturer's protocol, and the fluorescence images of the cells were acquired with a fluorescence microscope and analyzed using Zeiss LSM Image Browser software program. […]
# (§2) In order to examine an effect which occurs when CaMK-2α signaling is inhibited, the cancer stem cells were treated with 10 μM of KN62 (1-[N,O-bis(5-isoquinolinesulfonyl)-N-methyl-L-tyrosyl]-4-phenylpiperazine) well known as an inhibitor of CaMK-2α, and then a TUNEL assay was performed in the same manner as described in Example 3.1 to examine apoptosis and DNA fragmentation. In addition, Western blotting was performed in the same manner as described in Example 3.2 to examine the expression of genes, and the viability of the cells was measured in the same manner as described in Example 2.
# cancer stem cells [4] = assay: Immunoblot analysis (Western blotting) of cancer stem cells under nutrient deprivation; assay type: cell-based; conditions: 10 μM
# Method: In order to examine whether apoptosis-related proteins are involved in apoptotic resistance which is the reason why the cancer stem cells show high viability under nutrient deprivation, each of p-MDA-MB-231, p-MCF-7, s-MDA-MB-231 and s-MCF-7 cell lines, cultured under glucose deprivation for 40 hours in the same manner as described in Example 2, was collected and subjected to immunoblot analysis. The collected cells were washed twice with chilled PBS (phosphate buffered saline) buffer, and lysed with RIPA buffer to isolate protein. For the next experiment, the amount of the isolated protein was measured by a BCA assay. 20 μg of the protein obtained from each of the cell lines was electrophoresed on 8-10% SDS-polyacrylamide gel and transferred to a PVDF membrane using electricity. The protein-transferred PVDP membranes were treated with 5% skim milk at room temperature for 1 hour, and then incubated with a primary antibody against each of caspase-3, caspase-7, Bcl-2 and beta-actin (control) at 4° C. for 16 hours. The PVDP membranes incubated with the antibodies were washed three times with TBST buffer to remove unbound primary antibodies, and were further incubated with HPR-conjugated secondary antibodies at room temperature for 1 hour. After completion of the incubation, the membranes were washed with TBST buffer to completely remove the secondary antibodies, and were treated with ECL buffer and incubated for 3 minutes, followed by exposure to Kodak X-OMAT AR Film. […]
# as §2
smiles,measurement,setting,value
C/C=C(/C)C(=O)O[C@H]1C(C)=C2[C@H]([C@@H]1OC(=O)CCCCCCC)[C@@](C)(OC(C)=O)C[C@H](OC(=O)CCC)[C@@]1(O)[C@H]2OC(=O)[C@@]1(C)O [thapsigargin],viability of the cells,cancer stem cells [1],also high
same,extracellular calcium concentration of the cancer stem cells,cancer stem cells [2],maintained at a high level
"O=CC[C@@H](O)[C@H](O)[C@H](O)CO [2DG, 2-deoxyglucose]",tumor volume,"p-MDA-MB-231; P231, day 7, i.p. once a day, 2DG 500 mg/kg, metformin 250 mg/kg, caloxin 2al 200 mg/kg, in mm³ (unit assumed)",219.1 ± 35
same,tumor volume,"p-MDA-MB-231; P231, day 10, same dosing",302 ± 49
same,tumor volume,"p-MDA-MB-231; P231, day 13, same dosing, in mm³ (unit assumed)",337.6 ± 47
same,tumor volume,"p-MDA-MB-231; P231, day 16, same dosing, in mm³ (unit assumed)",388.6 ± 47
same,tumor volume,"p-MDA-MB-231; P231, day 19, same dosing, in mm³ (unit assumed)",440.7 ± 45
same,tumor volume,"p-MDA-MB-231; P231, day 22, same dosing, in mm³ (unit assumed)",513.4 ± 46
same,tumor volume,"p-MDA-MB-231; P231, day 25, same dosing, in mm³ (unit assumed)",621.4 ± 50
same,tumor volume,"p-MDA-MB-231; P231, day 28, same dosing, in mm³ (unit assumed)",834.4 ± 48
same,tumor volume,"p-MDA-MB-231; P231, day 31, same dosing, in mm³ (unit assumed)",1142.7 ± 50
same,tumor volume,"p-MDA-MB-231; P231, day 34, same dosing, in mm³ (unit assumed)",1547.4 ± 57
same,tumor volume,"p-MDA-MB-231; P231, day 37, same dosing, in mm³ (unit assumed)",1944.2 ± 64
same,tumor volume,"p-MDA-MB-231; P231, day 40, same dosing, in mm³ (unit assumed)",2359.0 ± 48
same,tumor volume,"p-MDA-MB-231; P231, day 43, same dosing, in mm³ (unit assumed)",2866.1 ± 45
same,tumor volume,"s-MDA-MB-231; S231, day 7, i.p. once a day, 2DG 500 mg/kg, metformin 250 mg/kg, caloxin 2al 200 mg/kg",228.5 ± 23
same,tumor volume,"s-MDA-MB-231; S231, day 10, same dosing",277.6 ± 21
same,tumor volume,"s-MDA-MB-231; S231, day 13, same dosing",474.4 ± 31
same,tumor volume,"s-MDA-MB-231; S231, day 16, same dosing",539.2 ± 33
same,tumor volume,"s-MDA-MB-231; S231, day 19, same dosing",638.2 ± 49
same,tumor volume,"s-MDA-MB-231; S231, day 22, same dosing",777.0 ± 35
same,tumor volume,"s-MDA-MB-231; S231, day 25, same dosing",911.6 ± 35
same,tumor volume,"s-MDA-MB-231; S231, day 28, same dosing",1077.4 ± 68
same,tumor volume,"s-MDA-MB-231; S231, day 31, same dosing",1290.6 ± 72
same,tumor volume,"s-MDA-MB-231; S231, day 34, same dosing",1722.1 ± 69
same,tumor volume,"s-MDA-MB-231; S231, day 37, same dosing",2471.7 ± 81
same,tumor volume,"s-MDA-MB-231; S231, day 40, same dosing",3173.2 ± 105
same,tumor volume,"s-MDA-MB-231; S231, day 43, same dosing",4065.2 ± 119
same,tumor volume compared to control group (in words),s-MDA-MB-231; cancer stem cell model,slightly decreased
"CN([C@@H](Cc1ccc(OS(=O)(=O)c2cccc3cnccc23)cc1)C(=O)N1CCN(c2ccccc2)CC1)S(=O)(=O)c1cccc2cnccc12 [KN62, 1-[N,O-bis(5-isoquinolinesulfonyl)-N-methyl-L-tyrosyl]-4-phenylpiperazine]",apoptosis (TUNEL assay),cancer stem cells [3],inducing apoptosis
same,expression of IP3R,cancer stem cells [4],inhibited
same,expression of SERCA2,cancer stem cells [4],increased
same,phosphorylation of NF-kB,cancer stem cells [4],did not occur

# Reference: US20170312333A1, “Composition for Treating Cancer Stem Cells” (Industry-Academic Corporation Foundation, Yonsei University, priority 2014, published 2017)
